Assay results: article PMC7766124, “Improved Cell Selectivity of Pseudin-2 via Substitution in the Leucine-Zipper Motif: In Vitro and In Vivo Antifungal Activity” (Antibiotics, 2020)
Read-outs that look alike come from different tables or passages of the source. No end group written: not given here.

Columns and labels:
A. flavus = type: cell-based, Aspergillus flavus (KCTC 6905); conditions: 36 h
Excerpt: (§1) Aspergillus flavus (KCTC 6905), A. fumigatus (KCTC 6145), Fusarium moniliforme (KCTC 6149), F. oxysporum (KCTC 16909), C. albicans (KCTC 7270), C. krusei (CCARM 14017), C. parapsilosis (CCARM 14016), C. tropicalis (KCTC 7221), and T. beigelii (KCTC 7707) were obtained from the Korea Collection for Type Cultures (KCTC) and Culture Collection of Antimicrobial Resistant Microbes (CCARM). Mold and yeast fungi were pre-grown on potato dextrose (PD) and yeast extract peptone dextrose (YPD) agars, respectively.
(§2) Antifungal activity of peptides was performed by microtiter plate assays. Fungal conidia from four-day-old molds were collected using 0.08% Triton X-100 (v/v), and pre-cultivated yeast cells were adjusted to 2 × 10^4 spores/mL in 10 mM sodium phosphate buffer (SP, pH 7.2) or 10 mM 2-(N-morpholino)ethanesulfonic acid (MES) buffer (pH 5.5) supplemented with 20% culture medium, followed by addition to peptide solutions (0.25, 0.5, 1, 1.5, 2, 4, 6, 8, 12, 16, 32, 48, and 64 µM) in 96-well microtiter plates. After incubation for 36 h at 28 °C, the hyphal growth of conidia and the proliferation of yeast cells were observed under a light microscope. All assays were performed in triplicate. The MIC values were defined as the lowest concentration of samples that reduced fungal germination (for mold) or cell proliferation (for yeast) by more than 90% [34].

A. fumigatus = type: cell-based, A. fumigatus (KCTC 6145); conditions: 36 h
Excerpt: as §1, §2

F. moniliforme = type: cell-based, Fusarium moniliforme (KCTC 6149); conditions: 36 h
Excerpt: as §1, §2

F. oxysporum = type: cell-based, F. oxysporum (KCTC 16909); conditions: 36 h
Excerpt: as §1, §2

C. albicans = type: cell-based, C. albicans (KCTC 7270); conditions: 36 h
Excerpt: as §1, §2

C. parapsilosis = type: cell-based, C. parapsilosis (CCARM 14016); conditions: 36 h
Excerpt: as §1, §2

C. tropicalis [1] = type: cell-based, C. tropicalis (KCTC 7221); conditions: 36 h
Excerpt: as §1, §2

T. beigelii = type: cell-based, T. beigelii (KCTC 7707); conditions: 36 h
Excerpt: as §1, §2

HaCaT cells = experiment: Cytotoxicity, XTT cell viability assay; type: cell-based, human; conditions: peptides 4-256 µM, 24 h incubation, triplicate
Experimental: Cell viability was assessed using sodium XTT assays. HaCaT (human immortalized keratinocytes) cells were cultured in Dulbecco’s modified Eagle medium (DMEM; ThermoFisher Scientific, Gibco, Waltman, MA, USA) supplemented with antibiotic-antimycotic (ThermoFisher Scientific, Gibco) and 10% fetal bovine serum (FBS; ThermoFisher Scientific, Gibco) at 37 °C in a humidified chamber containing 5% CO2. The cells were seeded at 5 × 10^4 cells/mL in flat-bottom 96-well microtiter plates in triplicate. Twenty-four hours later, cells were treated with two-fold serial dilutions of peptides (ranging from 256 to 4 µM) in medium, and the cells were further incubated for 24 h. Next, activated-XTT solution was added to each well and the plates were additionally incubated for 4 h. Absorbance in each well was measured at wavelengths of 480 and 650 nm using a microtiter SpectraMax M5 reader (Molecular Devices, Sunnyvale, CA, USA). Triton X-100 (0.1% v/v) and DMEM were used as controls for survival.

mouse erythrocytes = experiment: Hemolytic assay; type: cell-based; conditions: 64 µM peptide, 8% (v/v) mRBCs, 37 °C, 2 h (method) / 4 h (figure legend)
Experimental: Mouse blood was collected into sodium heparin-coated tubes (BD Vacutainer; BD Diagnostics, Oxford, UK). The mRBCs were obtained by centrifugation (800× g, 10 min) and washing with PBS. The washed mRBCs were added to a final concentration of 8% (v/v) in 64 µM peptide solution, followed by incubation for 2 h at 37 °C. After centrifugation, each tube was digitally recorded.

C. tropicalis [2] = experiment: C. tropicalis skin infection mouse model; type: in vivo, BALB/C female mice
Experimental: All animal experiments and procedures were performed with the approval of the Institutional Animal Care and Use Committee (IACUC) of Sunchon National University, Korea (SCNU IACUC-2019-10). BALB/C female mice (six weeks old) were obtained from Koatech Co. (Pyongtaek, Gyeonggido, Korea) and divided into three groups (n = 4): control, pseudin-2, and P2-LZ4 groups. The skin on the back of each mouse was shaved 1 h before infection, and the mice were anesthetized by inhalation of 5% (induction) and 2% (maintenance) isoflurane in pure oxygen. Mice were then subjected to subcutaneous infection with 100 µL C. tropicalis (10^7 cells/mL) by injection into the dorsum of each mouse. At 24 h after infection, 100 µL PBS, pseudin-2 (0.1 mg/mL), or P2-LZ4 (0.1 mg/mL) was injected into the same site. At four days after peptide injection, mice were euthanized by CO2 inhalation, and the infected skin tissues were excised, fixed in 4% paraformaldehyde, embedded in paraffin, stained with H&E, and observed by light microscopy.

C. tropicalis cells = experiment: SYTOX Green uptake (membrane permeability); type: cell-based; conditions: SP buffer pH 7.2, 0.5 μM SYTOX Green, peptides 1-64 µM, monitored 30 min
Experimental: C. tropicalis cells pre-grown at 28 °C were washed and suspended (2 × 10^6 cells/mL) in SP buffer (pH 7.2). The cells were pre-incubated with SYTOX Green (final concentration of 0.5 μM) for 15 min in the dark, followed by adding two-fold serial dilutions of peptides at concentrations of 1 to 64 µM. The fluorescence intensity was monitored for 30 min at 485 (Ex) and 520 (Em) nm using a microtiter SpectraMax M5 reader (Molecular Devices, San Jose, CA, USA).

GLNALKKVFQGIHEAIKLINNHVQ-NH2 [Pseudin-2]
MIC (A. flavus; pH 5.5): 16 µM
MIC (A. flavus; pH 7.2): 64 µM
MIC (A. fumigatus; pH 5.5): 24 µM
MIC (A. fumigatus; pH 7.2): 64 µM
MIC (F. moniliforme; pH 5.5): 64 µM
MIC (F. moniliforme; pH 7.2): 32 µM
MIC (F. oxysporum; pH 5.5): 16 µM
MIC (F. oxysporum; pH 7.2): 4 µM
MIC (C. albicans; pH 5.5): 32 µM
MIC (C. albicans; pH 7.2): 12 µM
MIC (C. parapsilosis; pH 5.5): >64 (>64) µM
MIC (C. parapsilosis; pH 7.2): >64 (>64) µM
MIC (C. tropicalis [1]; pH 5.5): 2 µM
MIC (C. tropicalis [1]; pH 7.2): 4 µM
MIC (T. beigelii; pH 5.5): 2 (2) µM
MIC (T. beigelii; pH 7.2): 2 (2) µM
cytotoxic effects against HaCaT cells (HaCaT cells): significant, concentration-dependent cytotoxic effects
hemolytic effects (hemoglobin release, by visualization) (mouse erythrocytes): did not release hemoglobin
histological evaluation of skin tissues (H&E) (C. tropicalis [2]; 100 µL of 0.1 mg/mL peptide s.c. 24 h after infection, tissues taken four days after peptide injection): able to recover from histological lesions
skin lesions (swelling and redness in the dorsal skin) (C. tropicalis [2]; 100 µL of 0.1 mg/mL peptide s.c. 24 h after s.c. infection, monitored seven days, n = 4): reduced swelling and redness
SYTOX Green fluorescence intensity (C. tropicalis cells): gradual, concentration-dependent increases in fluorescence intensity
